Measurements: PubChem BioAssay (NCI)
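GI50 marks 50% less growth. The concentration for full growth arrest is given as TGI.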

Columns and labels:
Experiment in all cases: inhibition of tumour cell growth, NCI panel, 384-well format
786-0 renal = system: 786-0 renal
A498 renal = system: A498 renal
A549 NSCLC = system: A549 NSCLC
ACHN renal = system: ACHN renal
BT-549 breast = system: BT-549 breast
CAKI-1 renal = system: CAKI-1 renal
CCRF-CEM leukemia = system: CCRF-CEM leukemia
COLO 205 colon = system: COLO 205 colon
DU-145 prostate = system: DU-145 prostate
EKVX NSCLC = system: EKVX NSCLC
HCT-116 colon = system: HCT-116 colon
HCT-15 colon = system: HCT-15 colon
HL-60(TB) leukemia = system: HL-60(TB) leukemia
HOP-62 NSCLC = system: HOP-62 NSCLC
HOP-92 NSCLC = system: HOP-92 NSCLC
HS 578T breast = system: HS 578T breast
HT29 colon = system: HT29 colon
IGROV1 ovarian = system: IGROV1 ovarian
K-562 leukemia = system: K-562 leukemia
KM12 colon = system: KM12 colon
LOX IMVI melanoma = system: LOX IMVI melanoma
M14 melanoma = system: M14 melanoma
MALME-3M melanoma = system: MALME-3M melanoma
MCF7 breast = system: MCF7 breast
MDA-MB-231 breast = system: MDA-MB-231 breast
MDA-MB-435 melanoma = system: MDA-MB-435 melanoma
MDA-MB-468 breast = system: MDA-MB-468 breast
MOLT-4 leukemia = system: MOLT-4 leukemia
NCI-H226 lung = system: NCI-H226 lung
NCI-H23 lung = system: NCI-H23 lung
NCI-H322M lung = system: NCI-H322M lung
NCI-H460 NSCLC = system: NCI-H460 NSCLC
NCI-H522 lung = system: NCI-H522 lung
NCI/ADR-RES ovarian = system: NCI/ADR-RES ovarian
OVCAR-3 ovarian = system: OVCAR-3 ovarian
OVCAR-4 ovarian = system: OVCAR-4 ovarian
OVCAR-5 ovarian = system: OVCAR-5 ovarian
PC-3 prostate = system: PC-3 prostate
RPMI-8226 leukemia = system: RPMI-8226 leukemia
RXF 393 renal = system: RXF 393 renal
SF-268 CNS = system: SF-268 CNS
SF-295 CNS = system: SF-295 CNS
SF-539 CNS = system: SF-539 CNS
SK-MEL-2 melanoma = system: SK-MEL-2 melanoma
SK-MEL-28 melanoma = system: SK-MEL-28 melanoma
SK-MEL-5 melanoma = system: SK-MEL-5 melanoma
SK-OV-3 ovarian = system: SK-OV-3 ovarian
SN12C renal = system: SN12C renal
SNB-19 CNS = system: SNB-19 CNS
SNB-75 CNS = system: SNB-75 CNS
SR leukemia = system: SR leukemia
SW-620 colon = system: SW-620 colon
T-47D breast = system: T-47D breast
TK-10 renal = system: TK-10 renal
U251 glioblastoma = system: U251 glioblastoma
UACC-257 melanoma = system: UACC-257 melanoma
UACC-62 melanoma = system: UACC-62 melanoma
UO-31 renal = system: UO-31 renal

NC(=O)c1ccc2nc(-c3ccc(Oc4ccc(Cl)cc4)cc3)[nH]c2c1
GI50 ([…]-0 renal): 15 µM
TGI (786-0 renal): 37.1 µM
GI50 (A498 renal): 16.1 µM
TGI (A498 renal): 31.6 µM
GI50 (A549 NSCLC): 20.2 µM
TGI (A549 NSCLC): > 100 µM
GI50 (ACHN renal): 17.4 µM
TGI (ACHN renal): 45.1 µM
GI50 (BT-549 breast): 13.6 µM
TGI (BT-549 breast): 30.7 µM
GI50 (CAKI-1 renal): 25.1 µM
TGI (CAKI-1 renal): > 100 µM
GI50 (CCRF-CEM leukemia): 15.3 µM
TGI (CCRF-CEM leukemia): 29.7 µM
GI50 (COLO 205 colon): 33.8 µM
TGI (COLO 205 colon): 97.8 µM
GI50 (DU-145 prostate): 15 µM
TGI (DU-145 prostate): 36.9 µM
GI50 (EKVX NSCLC): 21.7 µM
TGI (EKVX NSCLC): 68.4 µM
GI50 (HCT-116 colon): 16.8 µM
TGI (HCT-116 colon): 40.8 µM
GI50 (HCT-15 colon): 16.9 µM
TGI (HCT-15 colon): 34.4 µM
GI50 (HL-60(TB) leukemia): 15 µM
TGI (HL-60(TB) leukemia): 28.4 µM
GI50 (HOP-62 NSCLC): 13.6 µM
TGI (HOP-62 NSCLC): 33.9 µM
GI50 (HOP-92 NSCLC): 20 µM
TGI (HOP-92 NSCLC): 80.3 µM
GI50 (HS 578T breast): 13.4 µM
TGI (HS 578T breast): 30.7 µM
GI50 (HT29 colon): 10.5 µM
TGI (HT29 colon): 24.1 µM
GI50 (IGROV1 ovarian): 17.1 µM
TGI (IGROV1 ovarian): 53.2 µM
GI50 (K-562 leukemia): 7.87 µM
TGI (K-562 leukemia): 23.4 µM
GI50 (KM12 colon): 14.5 µM
TGI (KM12 colon): 31.3 µM
GI50 (LOX IMVI melanoma): 26.2 µM
TGI (LOX IMVI melanoma): 60.7 µM
GI50 (M14 melanoma): 20.2 µM
TGI (M14 melanoma): 50.3 µM
GI50 (MALME-3M melanoma): 17.1 µM
TGI (MALME-3M melanoma): 46.2 µM
GI50 (MCF7 breast): 12.1 µM
TGI (MCF7 breast): 27.1 µM
GI50 (MDA-MB-231 breast): 21.5 µM
TGI (MDA-MB-231 breast): 46.1 µM
GI50 (MDA-MB-435 melanoma): 23.2 µM
TGI (MDA-MB-435 melanoma): 68 µM
GI50 (MDA-MB-468 breast): 13.7 µM
TGI (MDA-MB-468 breast): 34.5 µM
GI50 (MOLT-4 leukemia): 12.9 µM
TGI (MOLT-4 leukemia): 25.8 µM
GI50 (NCI-H226 lung): 22 µM
TGI (NCI-H226 lung): 78.1 µM
GI50 (NCI-H23 lung): 20.1 µM
TGI (NCI-H23 lung): 76 µM
GI50 (NCI-H322M lung): 15.3 µM
TGI (NCI-H322M lung): 38.6 µM
GI50 (NCI-H460 NSCLC): 14.8 µM
TGI (NCI-H460 NSCLC): 29.1 µM
GI50 (NCI-H522 lung): 14.9 µM
TGI (NCI-H522 lung): 46.2 µM
GI50 (NCI/ADR-RES ovarian): 23.5 µM
TGI (NCI/ADR-RES ovarian): 74.7 µM
GI50 (OVCAR-3 ovarian): 12.1 µM
TGI (OVCAR-3 ovarian): 25.4 µM
GI50 (OVCAR-4 ovarian): 11.4 µM
TGI (OVCAR-4 ovarian): 37.1 µM
GI50 (OVCAR-5 ovarian): 23.6 µM
TGI (OVCAR-5 ovarian): > 100 µM
GI50 (PC-3 prostate): 16 µM
TGI (PC-3 prostate): 34.6 µM
GI50 (RPMI-8226 leukemia): 15.2 µM
TGI (RPMI-8226 leukemia): 29.1 µM
GI50 (RXF 393 renal): 10.6 µM
TGI (RXF 393 renal): 27.7 µM
GI50 (SF-268 CNS): 15.9 µM
TGI (SF-268 CNS): 56.2 µM
GI50 (SF-295 CNS): 13.5 µM
TGI (SF-295 CNS): 30.8 µM
GI50 (SF-539 CNS): 17.5 µM
TGI (SF-539 CNS): 45.1 µM
GI50 (SK-MEL-2 melanoma): 33.7 µM
TGI (SK-MEL-2 melanoma): 53.6 µM
GI50 (SK-MEL-28 melanoma): 22.2 µM
TGI (SK-MEL-28 melanoma): 80 µM
GI50 (SK-MEL-5 melanoma): 13.6 µM
TGI (SK-MEL-5 melanoma): 28.1 µM
GI50 (SK-OV-3 ovarian): 24.8 µM
TGI (SK-OV-3 ovarian): 58.7 µM
GI50 (SN12C renal): 17.4 µM
TGI (SN12C renal): 45.8 µM
GI50 (SNB-19 CNS): 14.9 µM
TGI (SNB-19 CNS): 35.4 µM
GI50 (SNB-75 CNS): 22.3 µM
TGI (SNB-75 CNS): 58.1 µM
GI50 (SR leukemia): 3.77 µM
TGI (SR leukemia): 14.1 µM
GI50 (SW-620 colon): 15.4 µM
TGI (SW-620 colon): 63.2 µM
GI50 (T-47D breast): 11.6 µM
TGI (T-47D breast): 29.5 µM
GI50 (TK-10 renal): 23.3 µM
TGI (TK-10 renal): > 100 µM
GI50 (U251 glioblastoma): 12.3 µM
TGI (U251 glioblastoma): 26.7 µM
GI50 (UACC-257 melanoma): 16.2 µM
TGI (UACC-257 melanoma): 35.1 µM
GI50 (UACC-62 melanoma): 25.2 µM
TGI (UACC-62 melanoma): 75.1 µM
GI50 (UO-31 renal): 16.9 µM
TGI (UO-31 renal): 44.5 µM
